US20210309652A1, “ISOXAZOLINE COMPOUNDS FOR CONTROLLING INVERTEBRATE PESTS” (priority 2018, published 2021)

How the values were obtained:
Format in all cases: in vivo
[1] = system: cotton melon aphid (Aphis gossypii (Glover)); assay: Test E: control of cotton melon aphid on okra plant, contact and/or systemic; conditions: 144 h
Method: (§1) Test Compounds were formulated using a solution containing 10% acetone, 90% water and 300 ppm Activator 90® non-ionic surfactant (Loveland Products, Loveland, Colo., USA). The formulated Compounds were applied in 1 mL of liquid through an atomizer nozzle positioned 1.27 cm (0.5 inches) above the top of each test unit. Test Compounds were sprayed at the rates indicated, and each test was replicated three times.
For evaluating control of cotton melon aphid (Aphis gossypii (Glover)) through contact and/or systemic means, the test unit consisted of a small open container with a 5-day-old okra plant inside. This was pre-infested with 30-40 insects on a piece of leaf according to the cut-leaf method, and the soil of the test unit was covered with a layer of sand.
Test Compounds were formulated and sprayed at 250, 50 and 10 ppm. After spraying, the test units were maintained in a growth chamber for 6 days at 19° C. and 70% relative humidity. Each test unit was then visually assessed for insect mortality.

[2] = system: potato leafhopper (Empoasca fabae (Harris)); assay: Test C: control of potato leafhopper on Soleil bean plant, contact and/or systemic; conditions: 144 h
Method: as §1
For evaluating control of potato leafhopper (Empoasca fabae (Harris)) through contact and/or systemic means, the test unit consisted of a small open container with a 5-6-day-old Soleil bean plant (primary leaves emerged) inside. White sand was added to the top of the soil, and one of the primary leaves was excised prior to application of the test Compound.
Test Compounds were formulated and sprayed at 250, 50 and 10 ppm. After spraying of the formulated test Compound, the test units were allowed to dry for 1 hour before they were post-infested with 5 potato leafhoppers (18-to-21-day-old adults). A black, screened cap was placed on the top of the test unit, and the test units were held for 6 days in a growth chamber at 20° C. and 70% relative humidity. Each test unit was then visually assessed for insect mortality.

[3] = system: corn earworm [Helicoverpa zea (Boddie)]; assay: Test H: control of corn earworm on treated cotton leaf pieces; conditions: 96 h
Method: (§2) For evaluating control of beet army worm [Spodoptera exigua (Hübner)], corn earworm [Helicoverpa zea (Boddie)], and cabbage looper [Trichoplusia ni (Hübner)], the test unit consisted of 4-inch diameter pots with 3-4 week old soybean (for S. exigua) or cotton (for H. zea and T. ni) plants inside. Plants were treated with test Compound sprayed to runoff using a hand-held spray nozzle. Test Compounds were formulated and sprayed at 5 rates. Treated plants dried for 1 hour. Leaves of treated plants were cut into pieces (approximately 4×3 cm), and pieces were placed in cells of plastic trays that each contained agar to maintain humidity. Each cell was infested with a single second-instar larva which represented a separate replicate. Each rate was represented by 16-24 larvae. Cells were sealed with lids. Trays were held for 4 days in a growth chamber with a 16:8-hour (Light:Dark) cycle at 25° C. and 70% relative humidity.
(§3) Treatments were evaluated by counting the number of live and dead larvae and by visually estimating the percentage of feeding on plant material using a 0-10 rating scale, corresponding to 10% increases from 0-100% feeding.

[4] = system: green peach aphid (Myzus persicae (Sulzer)); assay: Test D: control of green peach aphid on radish plant, contact and/or systemic; conditions: 144 h
Method: as §1
For evaluating control of green peach aphid (Myzus persicae (Sulzer)) through contact and/or systemic means, the test unit consisted of a small open container with a 12-15-day-old radish plant inside. This was pre-infested by placing on a leaf of the test plant 30-40 aphids on a piece of leaf excised from a culture plant (cut-leaf method). The aphids moved onto the test plant as the leaf piece desiccated. After pre-infestation, the soil of the test unit was covered with a layer of sand.
Test Compounds were formulated and sprayed at 250 and 50 ppm. After spraying of the formulated test Compound, each test unit was allowed to dry for 1 hour and then a black, screened cap was placed on top. The test units were held for 6 days in a growth chamber at 19-21° C. and 50-70% relative humidity. Each test unit was then visually assessed for insect mortality.

[5] = system: beet army worm [Spodoptera exigua (Hübner)]; assay: Test H: control of beet armyworm on treated soybean leaf pieces; conditions: 96 h
Method: as §2, §3

[6] = system: cabbage looper [Trichoplusia ni (Hübner)]; assay: Test H: control of cabbage looper on treated cotton leaf pieces; conditions: 96 h
Method: as §2, §3

[7] = system: Western Flower Thrips (Frankliniella occidentalis (Pergande)); assay: Test G: control of Western Flower Thrips on Soleil bean plant, contact and/or systemic; conditions: sprayed at 10 ppm; 6 days
Method: as §1
For evaluating control of the Western Flower Thrips (Frankliniella occidentalis (Pergande)) through contact and/or systemic means, the test unit consisted of a small open container with a 5-7-day-old Soleil bean plant inside.
Test Compounds were formulated and sprayed at 250, 50, 10 and 2 ppm. After spraying, the test units were allowed to dry for 1 hour, and then ˜60 thrips (adults and nymphs) were added to each unit. A black, screened cap was placed on top, and the test units were held for 6 days at 25° C. and 45-55% relative humidity. Each test unit was then visually assessed for plant damage and insect mortality.

Row | Compound | mortality at 10 ppm [1] [%] | mortality at 10 ppm [2] [%] | mortality at 1 ppm [3] [%] | mortality at 10 ppm [3] [%] | mortality at 10 ppm [4] [%] | mortality at 1 ppm [5] [%] | mortality at 10 ppm [5] [%] | further results
1 | O=C(NC1C[S+]([O-])C1)c1ccc(C2=NOC(c3cc(Cl)c(F)c(Cl)c3)(C(F)(F)F)C2)c2ccoc12 (single isomer, unassigned) [Compound 57, 4-(5-(3,5-dichloro-4-fluorophenyl)-5-(trifluoromethyl)-4,5-dihydroisoxazol-3-yl)-N-(1-oxidothietan-3-yl)benzofuran-7-carboxamide] | ≥ 80 | ≥ 80 | ≥ 80 | ≥ 80 | ≥ 80 | ≥ 80 | ≥ 80 | –
2 | O=C(NCc1ncccn1)c1ccc(C2=NOC(c3cc(Cl)c(F)c(Cl)c3)(C(F)(F)F)C2)c2ccsc12 (centres unmarked) [Compound 20, 4-[5-(3,5-dichloro-4-fluorophenyl)-4,5-dihydro-5-(trifluoromethyl)-3-isoxazolyl]-N-(2-pyrimidinylmethyl)benzo[b]thiophene-7-carboxamide] | – | ≥ 80 | – | – | – | – | – | mortality at 50 ppm [1]: ≥ 80%; mortality at 50 ppm [2]: ≥ 80%; mortality at 50 ppm [4]: ≥ 80%
3 | O=C(NC1CS(=O)(=O)C1)c1ccc(C2=NOC(c3cc(Cl)c(F)c(Cl)c3)(C(F)(F)F)C2)c2ccoc12 (centres unmarked) [Compound 56, 4-[5-(3,5-dichloro-4-fluorophenyl)-4,5-dihydro-5-(trifluoromethyl)-3-isoxazolyl]-N-(1,1-dioxido-3-thietanyl)-7-benzofurancarboxamide] | – | ≥ 80 | ≥ 80 | ≥ 80 | – | ≥ 80 | ≥ 80 | –
4 | C[C@H](NC(=O)c1ccc(C2=NOC(c3cc(Cl)cc(Cl)c3)(C(F)(F)F)C2)c2sccc12)C(N)=O (stereo partly drawn) [Compound 101, N-[(1S)-2-amino-1-methyl-2-oxo-ethyl]-7-[5-(3,5-dichlorophenyl)-5-(trifluoromethyl)-4H-isoxazol-3-yl]benzothiophene-4-carboxamide] | – | ≥ 80 | ≥ 80 | ≥ 80 | – | ≥ 80 | ≥ 80 | mortality at 1 ppm [6]: ≥ 80%; mortality at 10 ppm [6]: ≥ 80%
5 | CC(=O)NCc1ccc(C2=NOC(c3cc(Cl)cc(Cl)c3)(C(F)(F)F)C2)c2ccoc12 (centres unmarked) [Compound 79, N-[[4-[5-(3,5-dichlorophenyl)-5-(trifluoromethyl)-4H-1,2-oxazol-3-yl]-1-benzofuran-7-yl]methyl]acetamide] | ≥ 80 | ≥ 80 | ≥ 80 | – | – | – | – | –
6 | CSCCNC(=O)c1ccc(C2=NOC(c3cc(Cl)c(F)c(Cl)c3)(C(F)(F)F)C2)c2ccoc12 (centres unmarked) [Compound 1] | – | – | – | – | – | – | – | control efficacy: plant damage (30% or less plant damage and/or 100% mortality) [7]: ≤ 30%
7 | O=C(NC1CSC1)c1ccc(C2=NOC(c3cc(Cl)c(F)c(Cl)c3)(C(F)(F)F)C2)c2ccoc12 (centres unmarked) [Compound 55, 4-(5-(3,5-dichloro-4-fluorophenyl)-5-(trifluoromethyl)-4,5-dihydroisoxazol-3-yl)-N-(thietan-3-yl)benzofuran-7-carboxamide] | ≥ 80 | ≥ 80 | – | – | ≥ 80 | – | – | –
8 | CC(=O)NCc1ccc(C2=NOC(c3cc(Cl)c(F)c(Cl)c3)(C(F)(F)F)C2)c2ccoc12 (centres unmarked) [Compound 83, N-[[4-[5-(3,5-dichloro-4-fluorophenyl)-4,5-dihydro-5-(trifluoromethyl)-3-isoxazolyl]-7-benzofuranyl]methyl]acetamide] | ≥ 80 | ≥ 80 | ≥ 80 | – | ≥ 80 | ≥ 80 | – | –
